Consider five compounds from PMC4263767, “IL-28B is a Key Regulator of B- and T-Cell Vaccine Responses against Influenza” (PLoS Pathogens, 2014).

“Also recorded” adds a separate entry of the source. Read-outs that look alike come from different tables or passages of the source.

In one assay the test system is H1N1 stimulated PBMCs. The format is cell-based, human. Conditions: control peptides added twice during expansion phase.
Assay [1] deals with PBMCs from healthy volunteers. It counts as cell-based, human. Conditions: peptides 2 h prior to 5-day H1N1 stimulation, compared to peptide controls.
Assay [2] has as its system IL28RA (IL-28 receptor alpha subunit). Kind of assay: ELISA competition assay, binding of IL-28B to IL28RA. Conditions: for inhibition of IFN-λ / IL-28B binding to IL28RA (in words): peptides 10 µM, or increasing 10 nM to 100 µM; for binding affinity to IL28RA (in words): discussion. Background: An ELISA detects its analyte on a solid surface through an enzyme-linked reagent.
Excerpt: Recombinant IL28RA was coated on an ELISA plate and pre-treated with increasing concentrations of peptides. […] Anti-his secondary antibody was used to determine the relative amount of bound IFN-λ to the IL28RA. These dose-response curves allowed us to determine the effectiveness of binding inhibition of each peptide.
(C) Inhibitory activity of peptides against IL-28B to IL28RA. […] Bars indicate median values, whiskers inter-quartile ranges. The graph represents three independently repeated experiments. (D) Inhibitory activity of scrambled peptides against IL-28B to IL28RA. ELISA was used to measure the binding of a fixed concentration of IL-28B (100 ng/mL) to the IL28RA challenged by a fixed concentration of control peptides (10 µM; s, scramble). The median value representing three independently repeated experiments is shown. Whiskers indicate the interquartile range.

A further assay concerns IL28RA. To be noted: reference not given; cited from earlier work. The text has this:
An important strength of our study is the use of a clinical cohort including immunosuppressed transplant recipients to confirm our findings in the clinical setting. We then sought to define additional observations to support our clinical findings making our study unique. One limitation of our study is the heterogeneity of the transplant cohort due to a variety of underlying conditions leading to organ failure. […] In addition, we have shown that mycophenolate mofetil (MMF) and the IL-28B major-allele ...

Assay [3] deals with T-cells, monocytes and macrophages. Conditions: ref [18]–[21]; cited from earlier work. The text has this:
The IFN-λ family (Interleukin-28A, -28B, -29, and IFN-λ4) is a recently described class of IFNs with antiviral properties similar to IFN-α and -β [14]–[17]. IFN-λ is known to induce phosphorylation of STAT-1 and -2 via binding to its receptor, which is a heterodimer consisting of the IL-28 receptor alpha subunit (IL28RA) and IL-10 receptor beta subunit (IL10RB). […] Furthermore, IFN-λs induced the development of T-regu ... || IL-28B (IFN-λ3) belongs to the family of IFN-lambdas and shares antiviral properties similar to IFN-α via induction of interferon stimulated genes (ISGs) such as MX1 or OAS1 [41]. […] IL-12 is a key cytokine for the induction of Th1 cells and cytotoxic lymphocytes, [43]. SNPs in the IL-28B gene (minor-allele genotypes) have been associated with reduced IL-28B expression, [29]–[33], which could impact adaptive immune functions during vaccination. One limitation of our study is that we d ...

Assay [4] concerns PBMCs from healthy volunteers. Put plainly: IL-28A, IL-28B and IL-29 mRNA expression in H1N1-stimulated PBMCs. To be noted: MMF various concentrations 2 h before 6 h H1N1; n = 25. The format is cell-based, human. On the procedure: (A) PBMCs from healthy volunteers were stimulated for six-hours with H1N1. mRNA-expression of IL-28A, IL-28B and IL-29 were normalized to non-stimulated controls and HPRT expression. Major (rs8099917 TT, n = 28) compared to minor (rs8099917 non-TT, n = 21) allele genotype. MWU-test determined statistically significant differences between groups. Bars show median values with interquartile range. (B) PBMCs from healthy volunteers (n = 25) were pre-treated with mycophenolate mofetil for 2 h prior to stimulated for six-hours with H1N1. mRNA-expression of IL-28A, IL-28B and IL-29 and statistical analysis were performed using the Kruskal Wallis (KW) test.
IL-28B primers and probe were designed based on Homo sapiens IL-28B mRNA-sequence (NM_172139.2) using Primer3 Input (version 0.4.0) (http://frodo.wi.mit.edu/). The forward primer (IL-28BF1: […]) spans the exon/exon junction of exons 1 and 2 of IL-28B. The IL-28B-specific probe (IL-28B probe: […] ) is located in the second exon and the reverse primer (IL-28BR1: […]) is in the third exon of the IL-28B gene. […]
The specificity of the three sets of qRT PCR assays was tested against Invivogen expression plasmids containing complete IL-28A (puno1-hIL-28A), IL-28B (puno1-hIL-28B) and IL-29 (punoIL-29) sequences. The specificity of all qRT PCR assays has been previously assessed. […]

In the next assay the test system is transplant recipients. Conditions: MMF; ref [28], [48]; cited from earlier work.
[5] abbreviates: competition ELISA, IL-28B 100 ng/mL.

In the case of penetratin, the “unspecific stimulatory effect on H1N1 stimulated IgG production” value in the assay with H1N1 stimulated PBMCs was “No unspecific effect could be observed”.

Turning to ELASFKKARDALEESLKL [peptide 1], the figures for the “H1N1-induced IgG production (in words)” value in assay [1] (listed as Peptides 1) and in assay [1] (listed as peptides 1) were “strong trend for higher H1N1-induced IgG secretion” and “ability to significantly increase in vitro H1N1-induced IgG production”, respectively. For the same compound, the “reduction of the binding of IL-28B to IL28RA” value in assay [2] (competition ELISA, IL-28B 100 ng/mL, peptide 10 µM (S5C/S5D Figure), median of three independent experiments) amounted to 71%. The “inhibition of IFN-λ / IL-28B binding to IL28RA (in words)” value in assay [2] (setting [5]) is on record as “potent specific dose dependent inhibitory blocking effect”; in assay [2] (competition ELISA, IL-28B 100 ng/mL, listed as peptides 1), “strong potential to inhibit binding of IFN-λs”. The “binding affinity to IL28RA (in words)” value in assay [2] is “high binding affinities to IL28RA”.

For IL-29: one of the IFN-λ family members, the “binding affinity towards IL28RA compared to IL-28B” value in the assay on IL28RA was “significantly greater binding affinity”. In addition, in assay [3], the “Th1 and Th2 cytokine producing T-cells” value is “increase Th1 and suppress Th2 cytokine producing T-cells”.

For `COc1c(C)c2c(c(O)c1C/C=C(\C)CCC(=O)OCCN1CCOCC1)C(=O)OC2` [MMF, mycophenolate mofetil], the “IFN-λ (IL-28A, IL-28B, IL-29) mRNA expression profiles” value in assay [4] is given as “no difference in IFN-λ expression profiles; also recorded: not influenced”. The “effect on influenza vaccine responses” value in the assay on transplant recipients is on record as “significantly suppress influenza vaccine responses”.

Regarding ASVTFNLFRLLTRDLKY [peptide 6], in assay [1], the “H1N1-induced IgG production (in words)” value is given as “ability to significantly increase in vitro H1N1-induced IgG production”. Moreover, in assay [2] (setting [5]), the “inhibition of IFN-λ / IL-28B binding to IL28RA (in words)” value was “strong potential to inhibit binding of IFN-λs”. In addition, the “binding affinity to IL28RA (in words)” value in assay [2] is reported as “high binding affinities to IL28RA”.
